Experimental findings from ChEMBL document CHEMBL5291721, “A preclinical secondary pharmacology resource illuminates target-adverse drug reaction associations of marketed drugs” (Nat Commun, 2023) are described below.

One experiment addresses T1, Glucocorticoid receptor (Homo sapiens, UniProt P04150).
T1 sequence (P04150 whole entry): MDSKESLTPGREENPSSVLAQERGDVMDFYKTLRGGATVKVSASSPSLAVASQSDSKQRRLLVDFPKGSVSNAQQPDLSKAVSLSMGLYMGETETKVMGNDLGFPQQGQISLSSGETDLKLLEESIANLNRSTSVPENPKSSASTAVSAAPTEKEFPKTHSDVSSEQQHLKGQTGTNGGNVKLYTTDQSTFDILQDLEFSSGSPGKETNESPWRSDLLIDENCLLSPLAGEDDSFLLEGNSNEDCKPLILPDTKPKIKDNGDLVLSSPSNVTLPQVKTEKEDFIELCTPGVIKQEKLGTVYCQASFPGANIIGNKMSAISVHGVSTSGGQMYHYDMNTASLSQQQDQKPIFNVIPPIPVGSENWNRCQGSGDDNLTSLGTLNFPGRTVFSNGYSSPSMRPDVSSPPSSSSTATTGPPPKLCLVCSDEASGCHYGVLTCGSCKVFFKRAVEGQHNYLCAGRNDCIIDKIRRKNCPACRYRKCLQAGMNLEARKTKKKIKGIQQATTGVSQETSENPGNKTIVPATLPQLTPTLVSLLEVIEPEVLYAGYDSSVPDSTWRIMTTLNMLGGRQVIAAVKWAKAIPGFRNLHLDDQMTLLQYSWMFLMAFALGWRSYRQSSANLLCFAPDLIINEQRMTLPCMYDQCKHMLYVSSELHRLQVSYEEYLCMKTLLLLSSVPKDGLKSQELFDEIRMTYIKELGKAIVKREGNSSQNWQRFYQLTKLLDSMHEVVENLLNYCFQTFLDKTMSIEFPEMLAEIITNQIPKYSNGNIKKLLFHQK

Experiment [1] deals with 5-hydroxytryptamine receptor 2B (Homo sapiens, UniProt P41595). Type of experiment: functional, cell-based.
Experiment [2] deals with T2, Gastrin/cholecystokinin type B receptor (Homo sapiens, UniProt P32239).
T2 sequence (P32239 whole entry): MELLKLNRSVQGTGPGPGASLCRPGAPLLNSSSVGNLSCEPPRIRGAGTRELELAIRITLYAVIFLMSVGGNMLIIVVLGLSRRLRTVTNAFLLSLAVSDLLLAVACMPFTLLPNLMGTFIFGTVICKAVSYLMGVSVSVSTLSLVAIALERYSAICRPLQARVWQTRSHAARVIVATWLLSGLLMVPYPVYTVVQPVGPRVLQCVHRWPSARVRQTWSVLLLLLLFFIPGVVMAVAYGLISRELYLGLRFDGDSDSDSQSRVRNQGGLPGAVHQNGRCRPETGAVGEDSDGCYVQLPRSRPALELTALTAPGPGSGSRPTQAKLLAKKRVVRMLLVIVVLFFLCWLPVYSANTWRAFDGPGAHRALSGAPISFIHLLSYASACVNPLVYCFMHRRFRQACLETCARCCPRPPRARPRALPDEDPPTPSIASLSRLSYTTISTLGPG

For experiment [3], the target named is Delta-type opioid receptor (Homo sapiens, UniProt P41143).
Experiment [4] addresses Beta-1 adrenergic receptor (Homo sapiens, UniProt P08588). Type of experiment: functional.
For the next experiment, the target named is Cannabinoid receptor 1 (Homo sapiens, UniProt P21554). Type of experiment: functional, cell-based.
Another experiment addresses T3, Adenosine receptor A1 (Homo sapiens, UniProt P30542).
T3 sequence (P30542 whole entry): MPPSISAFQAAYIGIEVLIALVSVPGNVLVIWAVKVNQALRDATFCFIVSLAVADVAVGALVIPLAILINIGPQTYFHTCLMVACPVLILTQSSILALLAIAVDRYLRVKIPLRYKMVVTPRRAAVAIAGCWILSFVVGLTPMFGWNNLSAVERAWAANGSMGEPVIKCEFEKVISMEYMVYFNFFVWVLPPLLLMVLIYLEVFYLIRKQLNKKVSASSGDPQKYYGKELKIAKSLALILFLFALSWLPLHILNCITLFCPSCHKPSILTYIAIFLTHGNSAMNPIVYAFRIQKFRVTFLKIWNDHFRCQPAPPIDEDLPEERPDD

Experiment [5] deals with T4, 5-hydroxytryptamine receptor 1A (Homo sapiens, UniProt P08908).
T4 sequence (P08908 whole entry): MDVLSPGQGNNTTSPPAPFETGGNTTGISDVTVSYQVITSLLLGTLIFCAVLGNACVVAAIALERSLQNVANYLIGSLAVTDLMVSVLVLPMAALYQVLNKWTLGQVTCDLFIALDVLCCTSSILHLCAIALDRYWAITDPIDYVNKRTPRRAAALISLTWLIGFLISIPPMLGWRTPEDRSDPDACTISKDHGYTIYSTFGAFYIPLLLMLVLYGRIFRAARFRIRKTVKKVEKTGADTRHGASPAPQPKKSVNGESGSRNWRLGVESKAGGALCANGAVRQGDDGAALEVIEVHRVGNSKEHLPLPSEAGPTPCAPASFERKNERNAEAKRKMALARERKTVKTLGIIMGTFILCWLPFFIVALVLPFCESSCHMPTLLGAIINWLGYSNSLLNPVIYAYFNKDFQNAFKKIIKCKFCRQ
Type of experiment: functional, cell-based.
Also: assay procedure not described here.

Sequence of Cannabinoid receptor 1 (P21554 whole entry): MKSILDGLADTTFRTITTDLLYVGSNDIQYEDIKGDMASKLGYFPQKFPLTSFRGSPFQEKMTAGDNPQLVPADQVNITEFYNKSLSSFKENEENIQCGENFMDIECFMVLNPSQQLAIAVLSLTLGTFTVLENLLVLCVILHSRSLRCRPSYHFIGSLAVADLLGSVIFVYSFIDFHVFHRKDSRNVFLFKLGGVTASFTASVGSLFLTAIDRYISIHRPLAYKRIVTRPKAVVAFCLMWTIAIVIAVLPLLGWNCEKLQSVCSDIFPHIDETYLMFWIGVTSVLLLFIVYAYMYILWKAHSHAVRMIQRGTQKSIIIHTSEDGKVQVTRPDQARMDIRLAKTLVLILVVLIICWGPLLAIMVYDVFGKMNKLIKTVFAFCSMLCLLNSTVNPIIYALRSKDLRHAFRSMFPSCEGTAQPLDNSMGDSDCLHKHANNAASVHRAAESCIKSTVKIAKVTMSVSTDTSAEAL
Sequence of Beta-1 adrenergic receptor (P08588 whole entry): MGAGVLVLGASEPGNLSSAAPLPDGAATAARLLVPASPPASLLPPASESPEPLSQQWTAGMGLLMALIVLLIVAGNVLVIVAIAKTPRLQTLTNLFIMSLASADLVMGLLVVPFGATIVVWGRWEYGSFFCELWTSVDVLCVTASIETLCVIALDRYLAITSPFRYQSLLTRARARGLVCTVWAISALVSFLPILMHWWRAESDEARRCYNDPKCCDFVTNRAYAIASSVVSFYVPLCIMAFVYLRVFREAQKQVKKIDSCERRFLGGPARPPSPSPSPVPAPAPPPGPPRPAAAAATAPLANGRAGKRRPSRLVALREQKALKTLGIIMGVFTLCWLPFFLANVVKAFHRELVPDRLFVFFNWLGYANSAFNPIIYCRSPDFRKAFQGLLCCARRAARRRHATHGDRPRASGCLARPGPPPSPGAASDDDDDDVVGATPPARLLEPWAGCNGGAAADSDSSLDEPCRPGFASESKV
Sequence of 5-hydroxytryptamine receptor 2B (P41595 whole entry): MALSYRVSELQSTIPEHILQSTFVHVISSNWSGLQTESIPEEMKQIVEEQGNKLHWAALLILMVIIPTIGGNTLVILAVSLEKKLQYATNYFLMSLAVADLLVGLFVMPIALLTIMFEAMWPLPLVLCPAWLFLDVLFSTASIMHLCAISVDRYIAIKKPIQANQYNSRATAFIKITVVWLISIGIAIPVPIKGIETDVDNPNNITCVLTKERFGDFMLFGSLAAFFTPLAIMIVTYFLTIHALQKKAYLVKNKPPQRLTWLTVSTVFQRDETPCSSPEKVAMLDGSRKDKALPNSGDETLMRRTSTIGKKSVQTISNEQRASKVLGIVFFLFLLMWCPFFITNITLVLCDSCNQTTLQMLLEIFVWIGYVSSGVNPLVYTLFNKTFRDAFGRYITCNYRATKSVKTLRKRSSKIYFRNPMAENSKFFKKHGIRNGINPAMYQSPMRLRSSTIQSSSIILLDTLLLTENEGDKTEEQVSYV
Sequence of Delta-type opioid receptor (P41143 whole entry): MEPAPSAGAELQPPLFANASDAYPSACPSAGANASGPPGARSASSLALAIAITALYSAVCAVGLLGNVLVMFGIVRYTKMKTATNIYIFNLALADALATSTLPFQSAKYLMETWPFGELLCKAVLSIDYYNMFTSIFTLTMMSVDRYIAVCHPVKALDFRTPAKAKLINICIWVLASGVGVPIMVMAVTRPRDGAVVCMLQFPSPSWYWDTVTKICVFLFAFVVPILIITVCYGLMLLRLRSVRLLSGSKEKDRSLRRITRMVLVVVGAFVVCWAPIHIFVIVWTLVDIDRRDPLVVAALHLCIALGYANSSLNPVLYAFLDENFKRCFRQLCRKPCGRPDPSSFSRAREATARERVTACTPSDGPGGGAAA

`CCc1oc2ccccc2c1C(=O)c1cc(Br)c(O)c(Br)c1` [BENZBROMARONE]: the AC50 (usually the midpoint of the concentration-response curve, whichever way the signal moves) is 11 µM on Glucocorticoid receptor; above 30 µM in experiment [1]; above 30 µM in experiment [2]; above 30 µM in experiment [3]; 29 µM in experiment [4]; above 30 µM at Cannabinoid receptor 1. Moreover, the AC50 (on Adenosine receptor A1; in experiment [5]) was above 30 µM throughout.
Take `CO/N=C(\C(=O)N[C@@H]1C(=O)N2C(C(=O)O)=C(COC(N)=O)CS[C@H]12)c1ccco1` [CEFUROXIME]: the AC50 (at Glucocorticoid receptor; in experiment [1]; in experiment [2]; in experiment [3]; in experiment [4]; on Cannabinoid receptor 1) was above 30 µM in each case. Further, the AC50 (at Adenosine receptor A1; in experiment [5]) was above 30 µM each time.
On to `Clc1cccc(Cl)c1N=C1NCCN1` [CLONIDINE], for which the half-maximal activity concentration (AC50) is above 30 µM on Glucocorticoid receptor; above 10 µM in experiment [1]; above 30 µM in experiment [2]; above 30 µM in experiment [3]; above 10 µM in experiment [4]; above 30 µM on Cannabinoid receptor 1. Also, the AC50 at Adenosine receptor A1 was above 30 µM; in experiment [5], above 10 µM.
For `COC(=O)[C@H](c1ccccc1Cl)N1CCc2sccc2C1` [CLOPIDOGREL], the half-maximal activity concentration (AC50) (at Glucocorticoid receptor; in experiment [1]; in experiment [2]; in experiment [3]; on Cannabinoid receptor 1; at Adenosine receptor A1) was above 30 µM throughout. This compound had an AC50 in experiment [5] above 30 µM.
On to `Nc1nc(O)c2ncn(COC(CO)CO)c2n1` [GANCICLOVIR], for which the concentration at half-maximal activity (AC50) (at Glucocorticoid receptor; in experiment [1]; in experiment [2]; in experiment [3]; in experiment [4]; at Cannabinoid receptor 1) was above 30 µM in each case. In addition, the AC50 (on Adenosine receptor A1; in experiment [5]) was above 30 µM in each case.
Regarding `Cc1cnc(NC(=O)C2=C(O)c3ccccc3S(=O)(=O)N2C)s1` [MELOXICAM], the AC50 was above 30 µM at Glucocorticoid receptor; above 10 µM in experiment [1]; above 30 µM in experiment [2]; above 10 µM in experiment [3]; above 10 µM in experiment [4]; above 30 µM on Cannabinoid receptor 1. Moreover, the figures for the concentration at half-maximal activity (AC50) (on Adenosine receptor A1; in experiment [5]) were above 30 µM and above 10 µM, respectively.
With `COc1ccnc(C[S+]([O-])c2nc3ccc(OC(F)F)cc3[nH]2)c1OC` (centres undefined) [PANTOPRAZOLE], the half-maximal activity concentration (AC50) at Glucocorticoid receptor is above 30 µM; in experiment [1], above 10 µM; in experiment [2], above 30 µM; in experiment [3] it was above 30 µM; in experiment [4], above 10 µM; on Cannabinoid receptor 1 it was above 30 µM. Moreover, the values for the AC50 (at Adenosine receptor A1; in experiment [5]) were above 30 µM and above 10 µM, respectively.
For `O=C1NC(=O)C(c2ccccc2)(c2ccccc2)N1` [PHENYTOIN], the AC50 (at Glucocorticoid receptor; in experiment [1]; in experiment [2]; in experiment [3]; in experiment [4]; at Cannabinoid receptor 1) was above 30 µM each time. In addition, the concentration at half-maximal activity (AC50) (on Adenosine receptor A1; in experiment [5]) was above 30 µM in each case.
As to `CC(C)C[C@H](CN)CC(=O)O` [PREGABALIN], the AC50 was above 30 µM on Glucocorticoid receptor; 28 µM in experiment [1]; above 30 µM in experiment [2]; above 30 µM in experiment [3]; above 30 µM in experiment [4]; above 30 µM at Cannabinoid receptor 1. Moreover, the concentration at half-maximal activity (AC50) (at Adenosine receptor A1; in experiment [5]) was above 30 µM in each case.
In the case of `CCCN(CCC)CCc1cccc2c1CC(=O)N2` [ROPINIROLE], the AC50 at Glucocorticoid receptor was above 30 µM; in experiment [1], 2.76 µM; in experiment [2], above 30 µM; in experiment [3] it was above 30 µM; in experiment [4] it was above 30 µM; at Cannabinoid receptor 1, above 30 µM. Further, the AC50 (on Adenosine receptor A1; in experiment [5]) was above 30 µM throughout.
